Patent US20190328712A1 (Treeway TW001 B.V., priority 2017, published 2019)

How the values were obtained:
[1] = Single dose, randomized, two-period cross-over study, oral solution 140 mg vs i.v. 60 mg, plasma pharmacokinetics; format: in vivo; settings: human
Method: A single dose, randomized, two-period, cross-over study was conducted in 18 healthy male and female human subjects.

[2] = rats, oral, 'raw' edaravone suspended with 0.5% CMC-Na, vs 100% intravenous; cited from earlier work
[3] = Rate of dissolution of edaravone in water; format: physicochemical; settings: in the presence of an alkalizing agent
[4] = Single 60 mg dose of Radicut edaravone solution, oral and i.v. infusion, plasma pharmacokinetics in dogs; format: in vivo; settings: male, beagle, dog, iv, i.v. infusion 60 mg (15 min)
Method: The study was conducted in a group of 4 male beagle dogs. […] After a wash-out period of 2 days, the animals received an intravenous infusion of two Radicut® ampoules (15 minutes infusion time).

[5] = as above; format: in vivo; settings: male, beagle, dog; for concentration at […]: 0.25 hrs
[6] = ALS patients, Week 24; cited from earlier work
[7] = both sexes, plasma, iv, i.v. infusion 60 mg (60 minutes)
[8] = both sexes, plasma, iv, i.v. infusion (60 mg, 60 minutes)
[9] = both sexes, plasma, oral administration 140 mg
[10] = both sexes, plasma, oral administration (140 mg)
[11] = iv, i.v. infusion 60 mg (15 min)

Which bioavailability ([1]; both sexes, plasma, oral, 140 mg, oral aqueous solution 140 mg compared to i.v. infusion 60 mg, read-out: systemic / absolute bioavailability (Fabs)) does the source give for `CC1=NN(c2ccccc2)C(=O)C1` [edaravone, 3-methyl-1-phenyl-2-pyrazolin-5-one] here?
Its bioavailability is ~80%.

And the AUC(0-inf) [1, 7]?
The AUC(0-inf) was 1300 ng·h/mL.

And the AUC(0-t) [1, 7]?
Its AUC(0-t) is 1290 ng·h/mL.

And the Cmax [1, 7]?
Its Cmax is 1030 ng/mL.

What about the Tmax [1, 7] of the same compound?
The Tmax was 60 min.

What about the concentration at 0.17 h [1, 8] of the same compound?
Its concentration at 0.17 h is 380 ng/mL.

And the concentration at 0.5 h [1, 8]?
Its concentration at 0.5 h is 713 ng/mL.

And the concentration at 1 h [1, 8]?
The concentration at 1 h was 990 ng/mL.

And the concentration at 1.5 h [1, 8]?
The concentration at 1.5 h was 321 ng/mL.

And the concentration at 4 h [1, 8]?
The concentration at 4 h was 42 ng/mL.

What about the concentration at 6 h [1, 8] of the same compound?
Its concentration at 6 h is 14 ng/mL.

What about the concentration at 8 h [1, 8] of the same compound?
The concentration at 8 h was 8 ng/mL.

And the concentration at 10 h [1, 8]?
The concentration at 10 h was 5 ng/mL.

What about the AUC(0-inf) [1, 9] of the same compound?
The AUC(0-inf) was 2410 ng·h/mL.

And the AUC(0-t) [1, 9]?
Its AUC(0-t) is 2390 ng·h/mL.

What about the Cmax [1, 9] of the same compound?
The Cmax was 2940 ng/mL.

And the concentration at 0.083 h ([1]; both sexes, plasma, oral administration (140 mg), 0.083 hrs)?
The concentration at 0.083 h was 1200 ng/mL.

And the concentration at 0.17 h [1, 10]?
Its concentration at 0.17 h is 2360 ng/mL.

What about the concentration at […] ([1]; both sexes, plasma, oral administration (140 mg), 0.25 hrs) of the same compound?
The concentration at […] was 2630 ng/mL.

And the concentration at 0.5 h [1, 10]?
The concentration at 0.5 h was 1810 ng/mL.

What about the concentration at 1 h [1, 10] of the same compound?
The concentration at 1 h was 689 ng/mL.

And the concentration at 1.5 h [1, 10]?
The concentration at 1.5 h was 354 ng/mL.

What about the concentration at 2 h ([1]; both sexes, plasma, oral administration (140 mg), 2 hrs) of the same compound?
Its concentration at 2 h is 203 ng/mL.

And the concentration at 4 h [1, 10]?
The concentration at 4 h was 68 ng/mL.

What about the concentration at 6 h [1, 10] of the same compound?
The concentration at 6 h was 24 ng/mL.

What about the concentration at 8 h [1, 10] of the same compound?
Its concentration at 8 h is 13 ng/mL.

What about the concentration at 10 h [1, 10] of the same compound?
Its concentration at 10 h is 9 ng/mL.

And the “time to peak maximum concentration after administration” value ([1]; oral administration 140 mg)?
Its value is “about 15 min”.

What about the “absolute bioavailability (Fabs)” value [2] of the same compound?
Its value is 5.23%.

And the “rate at which edaravone dissolves in water” value [3]?
The value was “increased substantially”.

And the Tmax ([4]; 60 mg)?
Its Tmax is 15 min.

And the concentration at 0.083 h ([4]; 0.083 hrs)?
The concentration at 0.083 h was 3060 ng/mL.

And the concentration at 0.5 h ([4]; 0.5 hrs)?
Its concentration at 0.5 h is 648 ng/mL.

And the concentration at 1 h ([4]; 1 hrs)?
The concentration at 1 h was 140 ng/mL.

What about the concentration at 2 h ([4]; 2 hrs) of the same compound?
Its concentration at 2 h is 49 ng/mL.

What about the concentration at 4 h ([4]; 4 hrs) of the same compound?
The concentration at 4 h was 17 ng/mL.

And the concentration at 8 h ([4]; 8 hrs)?
Its concentration at 8 h is 6 ng/mL.

What about the bioavailability ([5]; oral 60 mg compared to iv infusion, read-out: systemic bioavailability (Fabs)) of the same compound?
Its bioavailability is 34%.

And the AUC(0-inf) ([5]; oral administration 60 mg)?
Its AUC(0-inf) is 553 ng·h/mL.

What about the AUC(0-t) ([5]; oral administration 60 mg) of the same compound?
The AUC(0-t) was 542 ng·h/mL.

And the Cmax ([5]; oral administration 60 mg)?
The Cmax was 2310 ng/mL.

What about the concentration at 0.083 h ([5]; oral administration 60 mg, 0.083 hrs) of the same compound?
Its concentration at 0.083 h is 2310 ng/mL.

What about the concentration at 0.17 h ([5]; oral administration 60 mg, 0.17 hrs) of the same compound?
The concentration at 0.17 h was 994 ng/mL.

And the concentration at […] ([5]; oral administration 60 mg)?
The concentration at […] was 491 ng/mL.

And the concentration at 0.5 h ([5]; oral administration 60 mg, 0.5 hrs)?
Its concentration at 0.5 h is 185 ng/mL.

What about the concentration at 1 h ([5]; oral administration 60 mg, 1 hrs) of the same compound?
The concentration at 1 h was 84 ng/mL.

What about the concentration at 1.5 h ([5]; oral administration 60 mg, 1.5 hrs) of the same compound?
The concentration at 1.5 h was 51 ng/mL.

And the concentration at 2 h ([5]; oral administration 60 mg, 2 hrs)?
Its concentration at 2 h is 36 ng/mL.

What about the concentration at 4 h ([5]; oral administration 60 mg, 4 hrs) of the same compound?
Its concentration at 4 h is 11 ng/mL.

What about the concentration at 6 h ([5]; oral administration 60 mg, 6 hrs) of the same compound?
The concentration at 6 h was 5 ng/mL.

And the Tmax ([5]; po, 60 mg, oral administration 60 mg)?
The Tmax was ~5 min.

And the AUC(0-inf) [5, 11]?
Its AUC(0-inf) is 1630 ng·h/mL.

And the AUC(0-t) [5, 11]?
The AUC(0-t) was 1600 ng·h/mL.

And the Cmax [5, 11]?
Its Cmax is 4380 ng/mL.

What about the concentration at […] [5, 11] of the same compound?
Its concentration at […] is 4380 ng/mL.

And the concentration at 10 h ([5]; iv, i.v. infusion 60 mg (15 min), 10 hrs)?
Its concentration at 10 h is 5 ng/mL.

And the “decline on a clinical assessment of daily functioning compared to placebo” value [6]?
Its value is “declined less”.
